From ChEMBL document CHEMBL1158597, “Investigation of Beckett-Casy model 2: synthesis of novel 15-16 nornaltrexone derivatives and their pharmacology” (Bioorg Med Chem Lett, 2010)

Tests used:
Mu-type opioid receptor = Mu-type opioid receptor (Cavia porcellus, UniProt P97266); experiment: Displacement of [3H]DAMGO from mu opioid receptor in Hartley guinea pig forebrain by liquid scintillation counting
[1] = Displacement of [3H]NTI from delta opioid receptor in Hartley guinea pig forebrain by liquid scintillation counter; set-up: species or system Cavia porcellus
[2] = biological target: Kappa-type opioid receptor (Cavia porcellus, UniProt P41144); experiment: Displacement of [3H][…] from kappa opioid receptor in Hartley guinea pig cerebellum by liquid scintillation counter; format: tissue-based
Kappa-type opioid receptor, sequence (P41144 whole entry): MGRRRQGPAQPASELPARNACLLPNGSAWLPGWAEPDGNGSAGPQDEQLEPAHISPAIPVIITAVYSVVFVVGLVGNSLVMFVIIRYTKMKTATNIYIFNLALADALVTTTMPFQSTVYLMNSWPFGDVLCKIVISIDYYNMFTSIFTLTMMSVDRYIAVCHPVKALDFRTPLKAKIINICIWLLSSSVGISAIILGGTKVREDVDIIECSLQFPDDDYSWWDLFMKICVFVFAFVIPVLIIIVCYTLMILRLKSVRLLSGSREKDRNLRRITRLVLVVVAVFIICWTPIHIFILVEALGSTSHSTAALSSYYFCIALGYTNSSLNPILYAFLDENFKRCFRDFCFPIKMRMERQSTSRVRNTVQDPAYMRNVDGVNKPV

Mu-type opioid receptor, sequence (P97266 whole entry): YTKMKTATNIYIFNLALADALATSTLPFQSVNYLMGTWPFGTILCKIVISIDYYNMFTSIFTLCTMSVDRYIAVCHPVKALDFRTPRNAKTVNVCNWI

Row | SMILES | Ki (Mu-type opioid receptor) [nM] | IC50 [1] [nM] | IC50 [2] [nM] | Ki [2] [nM] | Ki [1] [nM] | IC50 (Mu-type opioid receptor) [nM]
1 | O=C1CC[C@@]23OCCN(CC4CC4)[C@@H]2Cc2ccc(O)c4c2[C@H]3[C@H]1O4 | 294 | > 1000 | > 1000 |  |  | 
2 | CN(C)[C@@H]1Cc2ccc(O)c3c2[C@H]2[C@@H](O3)C(=O)CC[C@]21O | 8.95 | > 1000 | > 1000 |  |  | 
3 | CN(C)[C@@H]1Cc2ccc(O)c3c2[C@@H]2[C@H]1CCC(=O)[C@@H]2O3 | 50.9 | > 1000 | > 1000 |  |  | 
4 | O=C1CC[C@@]2(O)[C@H](NCC3CC3)Cc3ccc(O)c4c3[C@H]2[C@H]1O4 | 24.7 | > 1000 |  | 68.4 |  | 
5 | CN(CC1CC1)[C@@H]1Cc2ccc(O)c3c2[C@@H]2[C@H]1CCC(=O)[C@@H]2O3 | 3.36 |  |  | 8.81 | 272 | 
6 | CN[C@@H]1Cc2ccc(O)c3c2[C@H]2[C@@H](O3)C(=O)CC[C@@]12O | 118 | > 1000 | > 1000 |  |  | 
7 | O=C1CC[C@]23OCCN4CC[C@@]25c2c(ccc(O)c2O[C@@H]15)C[C@@H]43 | 86 | > 1000 |  | 72.6 |  | 
8 | CN[C@@H]1Cc2ccc(O)c3c2[C@@H]2[C@H]1CCC(=O)[C@@H]2O3 | 164 | > 1000 | > 1000 |  |  | 
9 | CN1CCO[C@@]23CCC(=O)[C@@H]4Oc5c(O)ccc(c5[C@@H]42)C[C@@H]13 |  | > 1000 | > 1000 |  |  | > 1000
10 | O=C1CC[C@@H]2[C@H]3c4c(ccc(O)c4O[C@@H]13)C[C@H]2NCC1CC1 | 30.3 | > 1000 |  | 32.2 |  | 
11 | CN(CC1CC1)[C@@H]1Cc2ccc(O)c3c2[C@H]2[C@@H](O3)C(=O)CC[C@]21O | 1.17 |  |  | 5.1 | 55.2 | 
